{"source": "patent US6812218B2", "about": "“Lipid derivatives of polythiourea” (Gencell S.A., priority 2001, dated 2004)", "key": {"plasmid pXL3031": {"tested_on": "plasmid pXL3031", "assay": "ethidium bromide fluorescence test of nucleic acid compaction", "assay_type": "binding", "settings": "conditions identical to the DT-3TU mixtures, 150 mM sodium chloride", "experimental": "In the text which follows, the nucleic acid used was the plasmid pXL3031 described in the publication Gene Therapy (1999) 6, pp. 1482-1488, which contained the luc gene encoding luciferase under the control of the cytomegalovirus CMV E/P promoter. This plasmid is represented in FIG. 7. Its size is 3671 bp. The plasmid solution used was diluted to 1.262 g/l in water for injection.\n(§1) The nucleic acid was brought into contact with increasing quantities of DT-3TU (12), by equivolumetric mixing of lipid solutions of various titers in the solutions of nucleic acid. Samples of 800 μl of nucleic acid complexes with a concentration of 0.01 μg/ml were thus prepared in a 150 mM sodium chloride solution with increasing quantities of DT-3TU (12).\nas §1, with “In the same manner, a control was prepared by bringing the” for “The”, “acid” for “acid was brought”, “EPC (see FIG. 1) or of DPPC (see FIG. 2),” for “DT-3TU (12),”, “[…]” for “μg/ml”, “EPC or of DPPC (FIGS. 1 and 2 respectively).” for “DT-3TU (12).”\nThe ethidium bromide fluorescence was measured over time (measured at 20° C.) using a FluoroMax-2 (Jobin Yvon-Spex) with excitation and emission wavelengths of 260 nm and 590 nm respectively. […]"}, "HeLa cells [1]": {"tested_on": "HeLa cells", "assay": "in vitro transfection, luciferase activity", "assay_type": "cell-based, human", "settings": "10% FCS versus without serum", "experimental": "This study was carried out for lipoplexes comprising various quantities of DT-3TU: 1.5 or 5 or 10 or 15 or 20 nmol of DT-3TU/μg of DNA. Each of these conditions was tested with and without fetal calf serum (“+Serum” or “−Serum”).\nHeLa cells (American type Culture Collection (ATCC) Rockville, Md., USA) derived from a carcinoma of human cervical epithelium, were cultured in the presence of an MEM (“minimum essential medium”) type medium with addition of 2 mM L-glutamine, 50 units/ml of penicillin and 50 units/ml of streptomycin. The medium and the additives were from Gibco-BRL Life Technologies (Gaithersburg, Md., USA). The cells were cultured in flasks at 37° C. and at 5% carbon dioxide in an incubator.\none day before the transfection, the HeLa cells were transferred into […] with a cell number of 30,000 to 50,000 per well. These dilutions represent approximately 80% confluence after 24 hours. […]\nBriefly, the transfected cells were washed twice with 500 μl of PBS (phosphate buffer) and then lysed with 250 μl of reagent (Promega cell culture lysis reagent, of the Luciferase Assay System kit). An aliquot of 10 μl of supernatant of the lysate centrifuged (12,000×g) for 5 minutes at 4° C. was measured with a Wallace Victor 2 luminometer (1420 Multilabel couter). […]"}, "HeLa cells [2]": {"tested_on": "HeLa cells", "assay": "toxicity toward the cells, protein level after transfection", "assay_type": "cell-based, human", "settings": "lipoplexes with 0.75 to 20 nmol of DT-3TU per μg of DNA", "experimental": "The protein level was measured after transfection. The transfection protocol was identical to that described in Example 8.\nBriefly, the transfected cells were washed twice with 500 μl of PBS (phosphate buffer) and then lysed with 250 μl of reagent (Promega cell culture lysis reagent, of the Luciferase Assay System kit). An aliquot of 50 μl of supernatant of the lysate centrifuged (12,000×g) for 5 minutes at 4° C. was transferred into a tube in the presence of 50 μl of 0.1 M iodoacetamide, 0.1 M hydrochloric acid tris at pH 8.2 and left for 1 hour at 37° C. 20 μl of the preceding solutions were deposited in a 96-well plate and 200 μl of “BCA protein assay” reagent (Pierce, Montluson, France) were added. The plate was then centrifuged at 2500 revolutions/min and then incubated at 37° C. for 30 minutes. In parallel, a bovine serum albumin (BSA) range was prepared in order to correlate the absorbance value obtained for the samples with a quantity of protein present in the sample."}, "[3]": {"assay": "size of the lipid/DNA particles", "assay_type": "physicochemical", "settings": "without lipid-PEG", "from_the_text": "The use of cholesterol-PEG in the DT-3TU/DPPC formulations has the advantage of permitting the reduction of the particles to such a quantity of lipid that, in the case of the absence of lipid-PEG, would lead to aggregation. […] In order to obtain particles of this size it is necessary to use at least 40 nmol of the lipid DT-3TU/μg of DNA. Thus, the use of lipid-PEG in the formulations of the lipid DT-3TU has the advantage of reducing the quantity of DT-3TU necessary to compact the DNA and form particles whose size is smaller than 500 nm"}, "[4]": {"tested_on": "tibial and cranial muscles", "assay": "in vivo muscle transfection, luciferase expression", "set-up": "species or system mice C57bl/6", "settings": "intramuscular, 3 μg of DNA, 96 hours after injection", "experimental": "Muscles samples were taken 96 hours after the injection and the level of expression for luciferase was measured using a luminometer (wallace).\nComplexes containing increasing quantities of DT-3TU lipid per μg of DNA were injected in both tibial and cranial muscles of the mice, to which electric pulsations were or were not applied (Bureau, M et al, BBA 2000).\nThe mice C57bl/6 had undergone previously anaesthetic with a mixture of Ketamin/Xylazine. The injection was or was not followed by the application of transcutaneous electric pulsations using electrodes placed in both ends of the muscle (Bureau, M et al, BBA 2000).\n96 hours after the injection, the mice underwent euthanasia, muscles samples were taken and ground in 1 ml buffer lyse solution. After centrifugation (10 min., 12000 rpm, 4° C.), supernatant (10 μl) was taken and placed in a 96 well plate to read the luciferase after adding 50 μl of luciferase substrate. The level of luminescence was read in the supernatant using a luminometer (Wallace, Victor)."}}}
{"compound": "CCCCCCCCCCCCCCCC(=O)OC[C@H](COP(=O)([O-])OCC[N+](C)(C)C)OC(=O)CCCCCCCCCCCCCCC", "note": "[DPPC, 1,2-dipalmitoyl-sn-glycero-3-phosphocholine]", "values": [{"measurement": "decrease in fluorescence, lipid alone (control)", "setting": "plasmid pXL3031", "result": "about 5%"}]}
{"compound": "CCCCCCCCCCCCCCN(CCCCCCCCCCCCCC)C(=O)CCC(=O)NCCNC(=S)NCCNC(=S)NCCNC(=S)NC", "note": "[DT-3TU, 3-(2-{3-[2-(3-{2-[3-(ditetradecylcarbamoyl)propionylamino]ethyl}thioureido)ethyl]thioureido}ethyl)-1-methylthiourea]", "values": [{"measurement": "effect of the presence of serum on transfection", "setting": "HeLa cells [1]", "result": "weak inhibition of transfection"}, {"measurement": "toxicity toward the cells", "setting": "HeLa cells [2]", "result": "no toxicity was observed"}, {"measurement": "quantity of lipid necessary to obtain particles inferior to 500 nm", "setting": "[3]", "result": "at least 40 nmol of the lipid DT-3TU/μg of DNA"}, {"measurement": "level of expression (luciferase) versus background noise of control muscle", "setting": "[4]", "result": "> 5.0×10^4"}, {"measurement": "transfection of muscle tissues", "setting": "[4]; 20 and 40 nmol of DT-3TU lipid per μg of DNA, with or without electric pulsations", "result": "significant level of transfection"}]}
